One test deals with HIF1α. The test is described as follows: IHC of patient tumor biopsies, Phase 1a/b study. The format is in vivo, human. The conditions noted are these: colorectal and head and neck cancer patients, 10 mg and 20 mg QD, cycle 3 vs screening. The procedure:
A first-in-human, multicenter, open-label, Phase 1a/b dose-escalation and dose-expansion study to establish the maximum tolerated dose (MTD), recommended phase II dose (RP2D), and evaluate the safety and tolerability of once daily (QD) oral dosing of HC-7366 potassium salt monohydrate in a dose-escalating fashion in subjects with advanced solid tumors was conducted. Up to 36 subjects were enrolled into the Phase 1a dose-escalation part of the study. Approximately 50% of all subjects enrolled in this study were subjects with squamous cell carcinoma of the head and neck (SCCHN), colorectal cancer (CRC), non-small cell lung cancer (NSCLC), and transitional cell carcinoma of the bladder (TCC). […] The study was conducted in the United States at approximately 3 to 5 sites. This Phase 1a/b study followed a traditional 3+3 design. The starting dose level was 10 mg QD, escalating to 20, 40, 75, 125, and 150 mg QD as safety allowed. All doses were administered in the fasting state with water at least 1 hour before food or at least 2 hours after food. […]
Tumor biopsies collected from colorectal cancer and head and neck cancer study patients at the time of screening and at cycle 3 were analyzed for HIF1α expression by IHC. […]

Test [1] deals with 786-O (human renal cell carcinoma cancer cells). As to the kind of experiment: In vivo tumor growth inhibition, 786-O xenograft. The following applies: HC-7366 single agent, 3 mg/kg twice daily (FIG. 58). More on the design: species or system BALB/c nude mice. The method, then: 786-O (human renal cell carcinoma cancer cells): Female 6-8 weeks old BALB/c nude mice were inoculated subcutaneously on the right flank with 786-O tumor cells (5×10^6) in 0.1 ml of RPMI1640 medium without serum for tumor development. […] For the DC101 combination study, DC101 (murine monoclonal anti-VEGFR2 antibody) was dosed at 15 mg/kg twice a week by intraperitoneal injection.
(§1) [formula] • 2.2.2 Tumor Measurements: The measurement of tumor size was conducted three times weekly with a caliper and recorded. The tumor volume (mm^3) was estimated using the formula: TV=a×b^2/2, where “a” and “b” is long and short diameters of a tumor, respectively. Tumor volume was calculated using the formula [tumor volume (mm^3)=π/6×length×width^2).
(§2) Regression was calculated using the formula=100×ΔT/T initial, if ΔT<0. Animals with 0 mm^3 tumor volume (no measurable tumor) for three consecutive measurements were considered as complete responders and animals with 50% tumor regressions were partial responders.
Female 6-8 weeks old BALB/c nude mice were inoculated subcutaneously on the right flank with 786-O tumor cells (5×10^6) in 0.1 ml of RPMI1640 medium without serum for tumor development (see Example 6). […]

Test [2] has as its system Kasumi-1 (human AML cancer cells). The test is described as follows: In vivo tumor growth inhibition, Kasumi-1 xenograft. Further details: species or system CB17 SCID mice. The method, then:
Kasumi-1 (human AML cancer cells): Female 6-8 weeks old CB17 SCID mice were inoculated subcutaneously on the right flank with […] tumor cells (1×10^7) in RPMI 1640 without serum for tumor development. The treatments were started when the mean tumor size reached approximately 151 mm^3 at Day 29 after cell inoculation and continued until end of study by twice daily oral gavage dosing of HC-7366 at listed doses (vehicle, 3 mg/kg HC-7366, or 30 mg/kg HC-7366, FIG. 18).
as §1, §2

Test [3] concerns MFE280 (human endometrial cancer cells). As to the kind of experiment: In vivo tumor growth inhibition, MFE280 xenograft. Further details: species or system Athymic Nude-Foxn1nu mice.

The structures appear in SMILES notation.

For orientation: TGI means the reduction of tumour growth relative to the control group. Take `CNC(=O)c1ncn2cc(-c3c(F)ccc(NS(=O)(=O)c4cc(Cl)cnc4OC)c3F)ncc12` [HC-7366, 6-(3-((5-chloro-2-methoxypyridine)-3-sulfonamido)-2,6-difluorophenyl)-N-methylimidazo[1,5-a]pyrazine-1-carboxamide]: in the test on HIF1α, the “HIF1α expression in tumor biopsies” value was “Profound inhibition”. The TGI % in test [1] is roughly 78%. The TGI in test [2] (3 mg/kg twice daily oral) is on record as 73%; in test [2] (30 mg/kg twice daily oral), 77%. In addition, the results for the tumor growth inhibition in test [3] (HC-7366 0.5 mg/kg twice daily oral) and in test [3] (HC-7366 2 mg/kg twice daily oral) were 45% and 53%, respectively.
